Measured values: article PMC8236048, “Pharmaceutical design of a delivery system for the bacteriocin lacticin 3147” (Drug Delivery and Translational Research, 2021)

Assays:
C. difficile = details: treatment failures of C. difficile infection after use of antibiotics; cited from earlier work
Excerpt: Approximately 223,900 C. difficile infections and 12,800 resulting deaths were reported in the USA in 2017 [17]. Treatment failures and recurrences of infection after the use of antibiotics are increasingly common, with a 2–38% failure rate for vancomycin and 8–50% for metronidazole. A more virulent strain of C. d ...

pepsin = target: T1, pepsin (Sus scrofa, UniProt P00791); assay: Enzyme degradation of lacticin 3147 by pepsin (activity, MALDI-TOF, RP-HPLC); type: in vitro ADME; details: 3 h; for intact peptide after incubation with pepsin (MALDI-TOF): 25 mg/ml pepsin, 13.38 µg/ml Ltnα, 11.86 µg/ml Ltnβ, pH 2.29, n = 3; for concentration with versus without pepsin (RP-HPLC): 60 mg/ml pepsin, 62.5 µg/ml peptide, 37 °C, RP-HPLC UV 214 nm
T1 construct: purchased Sigma-Aldrich Ireland Ltd
Protocol: (§1) Lacticin 3147 production was confirmed by matrix-assisted laser desorption ionization-time of flight (MALDI-TOF) mass spectrometry using sinapinic acid as the matrix. About 0.7 μl of the matrix solution (sinapinic acid, 4 mg/ml in 50% acetone/50% methanol) was added to the target plate and left to evaporate (30 s) at ambient conditions. Individual peptides (Ltnα or Ltnβ) were resuspended in 70% IPA and mixed at a 1:1 volume ratio with a 10-mg/ml stock solution of sinapinic acid in 60% ACN with 0.1% TFA. About 0.3 μl of this peptide-matrix solution was then added to the matrix layer previously applied to the plate and evaporated at ambient conditions. The plate was inserted into a MALDI-TOF Ultraflex mass spectrometer (Bruker) and analysed using reflectron positive 700–3500 Da mode. 100 shots were fired at 88% intensity. This method was also used for the analyses of samples from the enzyme degradation studies.
All lacticin 3147 samples were filtered through a 0.2-µm PES filter before analysis by RP-HPLC using an Agilent 1200 Infinity Series HPLC (Agilent Technologies, USA). The HPLC separations were carried out on an Aeris 3.6 µm Peptide 100 Å 250 × 4.6 mm, liquid chromatography column with a flow rate of 0.8 ml/min, and with 0.1% trifluoroacetic acid (TFA) in water as aqueous phase-A and 0.1% TFA in acetonitrile (ACN) as organic phase-B. The total run time was 51 min. The mobile phase started with 30:70 A:B for 3 min and change linearly to 35:65 A:B over 30 min. The organic phase was then adjusted to 100% within 1 min and continued to flow for 5 min. After this, the mobile phase returned to the initial ratio to stabilize the chromatographic system. The detector was set at 214 nm. The peak area (mAU) was plotted against the concentration (1.56–500 µg/ml) to make a calibration curve. The coefficients of determination (R^2 values) were 0.9963 and 0.9983 for Ltnα and Ltnβ respectively. This method was subsequently used for quantitative analysis of Ltnα and Ltnβ.
(§2) Trypsin and α-chymotrypsin stock solutions (50 mg/ml) were resuspended in water. Pepsin (50 mg/ml) was resuspended in 0.02 M HCL. About 1 mg/ml individual solutions of Ltnα and Ltnβ in 70% IPA were filtered and diluted (1 in 20) in sterile PBS to give a final peptide concentration of 50 µg/ml. After this, 5.3 µl Ltnα and 4.6 µl Ltnβ were added to the same well of a 96-well plate. The pH of the lacticin 3147-pepsin solution was 2.29. Control wells consisting of Ltnα and Ltnβ together, Ltnα alone, and Ltnβ alone with no enzyme were included. The 96-well plate was incubated for 3 h at 37 °C to allow the enzyme to act. After incubation, the wells were filled to 50 μl with PBS and 150 μl of diluted bacterial cell culture (L. monocytogenes at an OD of 0.1) was added to each well. The final peptide concentration of 400 nM (1.31 µg/ml Ltnα, 1.14 µg/ml Ltnβ) was obtained when the wells were filled to 200 µl. Blanks were set up in triplicate with media only and PBS only. The three control wells were also set up with bacterial culture and each enzyme only. […] The effect of the proteases pepsin, α-chymotrypsin, and trypsin on the lacticin 3147 peptides was determined by MALDI-TOF mass spectrometry. […] After 3 h, 1 µl was removed from each sample and it was analysed by MALDI-TOF mass spectrometry. […]
Pepsin’s effect on lacticin 3147 was also investigated by RP-HPLC. […] After incubation, aliquots were taken, filtered, and analysed by RP-HPLC to determine if pepsin degrades Ltnα or Ltnβ to any extent.

trypsin = assay: Enzyme degradation of lacticin 3147 by trypsin (activity, MALDI-TOF); type: in vitro ADME; details: 3 h incubation, n = 3
Protocol: as §1
Trypsin and α-chymotrypsin stock solutions (50 mg/ml) were resuspended in water. Pepsin (50 mg/ml) was resuspended in 0.02 M HCL. […] The effect of the proteases pepsin, α-chymotrypsin, and trypsin on the lacticin 3147 peptides was determined by MALDI-TOF mass spectrometry. […] After 3 h, 1 µl was removed from each sample and it was analysed by MALDI-TOF mass spectrometry. […]

α-chymotrypsin = target: T2, α-chymotrypsin (Bos taurus, UniProt P00766); assay: Enzyme degradation of lacticin 3147 by α-chymotrypsin (activity, MALDI-TOF); type: in vitro ADME; details: 3 h incubation, n = 3
T2 construct: purchased Sigma-Aldrich Ireland Ltd
Protocol: as §1
as §2, with “µl.” for “µl. Blanks were set up in triplicate with media only and PBS only. The three control wells were also set up with bacterial culture and each enzyme only.”

T1 sequence (P00791 60-385): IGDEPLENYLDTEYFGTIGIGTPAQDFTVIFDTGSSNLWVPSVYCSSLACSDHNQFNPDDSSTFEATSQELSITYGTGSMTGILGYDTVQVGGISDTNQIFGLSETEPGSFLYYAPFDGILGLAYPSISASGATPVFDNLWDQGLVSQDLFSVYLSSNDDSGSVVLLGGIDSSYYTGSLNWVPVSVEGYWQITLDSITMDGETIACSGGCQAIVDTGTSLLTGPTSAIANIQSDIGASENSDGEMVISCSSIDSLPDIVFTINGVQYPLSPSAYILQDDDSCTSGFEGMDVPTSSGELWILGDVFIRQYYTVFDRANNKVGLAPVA

Compound	failure rate (C. difficile)	intact peptide after incubation with pepsin (MALDI-TOF) (pepsin)	concentration with versus without pepsin (RP-HPLC) (pepsin)	intact peptide after incubation with trypsin (MALDI-TOF) (trypsin)	intact peptide after incubation with α-chymotrypsin (MALDI-TOF) (α-chymotrypsin)
Cc1ncc([N+](=O)[O-])n1CCO [metronidazole]	8–50%				
CC=C(NC(=O)C1CSCC(N)C(=O)N1)C(=O)N[C@@H](CC(N)=O)C(=O)NC(=CC)C(=O)N[C@@H](Cc1ccccc1)C(=O)N[C@H](C)C(=O)N[C@@H](CC(C)C)C(=O)NC1CSCC(C(=O)NC2C(=O)N[C@@H](CC(C)C)C(=O)NC3C(=O)N[C@@H](Cc4c[nH]cn4)C(=O)N[C@@H](CCC(=O)O)C(=O)NC(CSC2C)C(=O)N[C@@H](CCSC)C(=O)N[C@@H](C)C(=O)N[C@@H](Cc2c[nH]c4ccccc24)C(=O)NC(C(=O)N[C@@H](CCCCN)C(=O)O)CSC3C)NC(=O)[C@H](Cc2c[nH]c3ccccc23)NC(=O)[C@H](C)NC(=O)CNC(=O)[C@H](CC(N)=O)NC(=O)[C@H](CC(N)=O)NC(=O)CNC(=O)[C@H](Cc2c[nH]c3ccccc23)NC(=O)[C@H](Cc2ccc(O)cc2)NC(=O)[C@H](CC(=O)O)NC1=O (stereo partly shown) [Ltnα]		Masses corresponding to Ltnα and Ltnβ can be seen	not significantly different	no masses corresponding to intact	no masses corresponding to intact
CN[C@H](CC(C)C)C(=O)N[C@H]1C(=O)N[C@@H](CC(N)=O)C(=O)N[C@H]2C(=O)N[C@H]3C(=O)N[C@H](C(=O)N[C@H](C(=O)O)c4cc(O)cc(O)c4-c4cc3ccc4O)[C@H](O)c3ccc(c(Cl)c3)Oc3cc2cc(c3O[C@@H]2O[C@H](CO)[C@@H](O)[C@H](O)[C@H]2O[C@H]2C[C@](C)(N)[C@H](O)[C@H](C)O2)Oc2ccc(cc2Cl)[C@H]1O [vancomycin]	2–38%				
CC=C(NC(=O)C(=O)CC)C(=O)N1CCC[C@H]1C(=O)N[C@@H](C)C(=O)NC(=CC)C(=O)N1CCC[C@H]1C(=O)N[C@@H](C)C(=O)N[C@H](C(=O)N[C@H](C)C(=O)N[C@H](C(=O)N[C@@H](CC(C)C)C(=O)N[C@H](C)C(=O)N[C@@H](C)C(=O)N[C@@H](Cc1ccc(O)cc1)C(=O)N[C@H](C(=O)NC1CSCC(C(=O)N2CCC[C@H]2C(=O)NC2C(=O)N[C@@H]([C@@H](C)O)C(=O)N[C@@H](CCCCN)C(=O)NC(C(=O)NC3C(=O)N[C@@H](CCCNC(=N)N)C(=O)N[C@@H](C)C(=O)NC(C(=O)O)CSC3C)CSC2C)NC(=O)[C@H]([C@@H](C)O)NC(=O)[C@H](CC(N)=O)NC(=O)[C@H]([C@@H](C)O)NC1=O)[C@@H](C)CC)[C@@H](C)CC)[C@@H](C)CC (stereo partly shown) [Ltnβ]		Masses corresponding to Ltnα and Ltnβ can be seen	not significantly different	no masses corresponding to intact	no masses corresponding to intact
